Test results reported in publication PMC11726150, “Pre‐ADMET studies of 5‐(3′,4′‐dihydroxyphenyl)‐γ‐valerolactone, the bioactive intestinal metabolite of proanthocyanidins” (Archiv Der Pharmazie, 2024).
Blank lines part the entries; values can stand above or below the molecule they belong to.

Experiments:
Wt‐MDCK cells = assay: MTT cell viability assay; type: cell-based, canine; details: 20 μM, data not shown
Experimental: (§1) The effect of test samples on cell viability was measured using an MTT assay. Briefly, exponentially growing 2 × 10^4 cells/200 μL were seeded in 96‐well plates and allowed to grow until reaching their differentiation state. Cells were treated with different concentrations of VL (50–1.6 µM) and positive control camptothecin (30–1 μM) serially diluted in serum‐free medium. After incubation, 10 μL of MTT dye (5 mg/mL stock in PBS) was added to each well, and plates were additionally incubated for 4 h. Further, media were aspirated, and cells were washed with 100 μL of phosphate buffer saline. The formazan blue crystals formed by viable cells were dissolved in 150 μL of DMSO, and the absorbance was measured at 580 nm on a Bio‐Tek, Synergy HT Multi‐Mode, plate reader. The % decrease in viability of sample‐treated cells was calculated compared with vehicle‐treated cells.^[ [46] ^]

LS174T cells = assay: MTT cell viability assay; type: cell-based, human; details: 20 μM, data not shown
Experimental: as §1

Caco2 cells = assay: MTT cell viability assay; type: cell-based, human; details: Caco2, 20 μM, data not shown
Experimental: as §1

HepG2 cells = assay: MTT cell viability assay; type: cell-based, human; details: HepG2, 20 μM, data not shown
Experimental: as §1

[1] = parameters: method as in earlier work; details: healthy subjects, ref 43 (Di Pede et al.), cited from earlier work; for Cmax: human plasma, after PACs intake, read-out: C MAX (mean ± SD) in plasma; for average urinary excretion (% of ingested dose): human urine
PXR = biological target: T1, PXR (Homo sapiens, UniProt O75469); type: cell-based; parameters: expressed in transfected cells; host or cells: HepG2 and LS174T cells, transient electroporation; details: HepG2 cells, 10 µM
T1 sequence (O75469 1-434): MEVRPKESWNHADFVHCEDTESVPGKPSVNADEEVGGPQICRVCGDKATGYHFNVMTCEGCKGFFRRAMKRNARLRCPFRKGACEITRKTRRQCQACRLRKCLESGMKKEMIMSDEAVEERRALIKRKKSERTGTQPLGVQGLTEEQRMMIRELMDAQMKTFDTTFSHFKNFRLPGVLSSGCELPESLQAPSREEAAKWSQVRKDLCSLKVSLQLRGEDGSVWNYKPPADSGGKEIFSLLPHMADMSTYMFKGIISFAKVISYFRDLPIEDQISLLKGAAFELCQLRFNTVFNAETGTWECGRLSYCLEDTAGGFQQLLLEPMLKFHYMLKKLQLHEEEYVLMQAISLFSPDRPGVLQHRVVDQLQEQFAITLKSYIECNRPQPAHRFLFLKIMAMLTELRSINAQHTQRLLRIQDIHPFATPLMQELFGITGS
Experimental: The PXR activation potential of VL was determined in transiently transfected HepG2 and LS174T cells as described earlier.^[ [50] ^] In brief, 24‐h‐old cells having 70%−80% confluency were trypsinized and transfected with pSG5‐hPXR (25 μg) and PCR‐5 (25 μg) plasmid DNA by electroporation at 180 V (1 pulse for 70 ms). Cells were incubated at room temperature for 8 min and floating dead cells were carefully removed. Cells were seeded in 96‐well plates at a density of 50,000 cells/well. […] Following 24 h of incubation, the culture medium was aspirated and 40 μL of luciferase reagent (Promega Corporation) was added to each well. Luminescence was measured using a Spectramax M5 plate reader (Molecular Devices) and the fold increase in luciferase activity among sample‐treated cells was calculated in comparison with the vehicle‐treated (DMSO) cells.

P‐gp = assay: Rhodamine‐123 uptake assay, induction (48 h), differentiated Caco2 cells; type: cell-based, human; details: 10 µM, 48 h treatment; 0.1% DMSO vehicle control = 100%
Experimental: P‐gp modulation was determined in differentiated Caco2 cells by Rh‐123 uptake assay.^[ [49] ^] In brief, cells in the logarithmic growth phase with 70%–80% confluency were harvested and seeded at a density of 2 × 10^4/well of a 96‐well plate. Cells were allowed to grow for 21 days in a CO2 incubator changing the medium every other day.
After treatment, cells were washed with Hank's buffer and 200 μL of phenol, and serum‐free DMEM/F12 medium containing […] of Rh‐123 was added and cells were incubated for 90 min. The final steps were as described previously.

Wt‐MDCK monolayers = assay: In vitro transport study across 5‐day Wt‐MDCK monolayers; type: in vitro ADME, canine; details: Wt‐MDCK model, VL 50 μM dosed (VLS formed as metabolite), controls 10 μM, N = 4; for P app A–B (mean ± SD): absorptive direction; for P app B–A (mean ± SD): secretory direction
Experimental: (§2) Caco2 cells between passage numbers 42–50 and MDCK cells between passage numbers 21–26 were used for transport studies; the assay was conducted as reported by Volpe^[ [33] ^] with slight modifications. Transport experiments were performed in 12‐well Transwell plates. Caco2 cells were seeded at a density of 60,000 cells/cm^2 and grown for 21 days, with change of media every 3 days, while MDCK cells were seeded at a density of 70,000 cells/cm^2 and grown for 5 days, changing the medium daily. The physiological and morphological formation of a confluent monolayer was evaluated by measuring the TEER value: Caco2 monolayers became confluent 1 week after seeding with TEER values greater than 450 Ω/cm^2, while MDCK monolayers became confluent 24 h after seeding with TEER values greater than 90 Ω/cm^2. Phenol red and serum‐free DMEM/F12 medium was used as transport buffer. For bidirectional transport, VL (50 μM) and control compound (propranolol and paclitaxel, 10 μM) were added to the apical side to determine apical to basolateral transport (A–B; absorptive direction) and to the basal side to determine basolateral to apical transport (B–A; secretory direction). The volume of the apical and basolateral chambers was 0.5 and 1.5 mL, respectively. Aliquots of 120 μL were taken from the basolateral (for A–B transport) or the apical (for B–A transport) chamber at 30, 60, 90, and 120 min. An equal volume was replaced with a transport buffer at every time point. At the beginning and at the end of the experiment, an aliquot was also taken from the apical or basolateral chamber for analysis of the drug. To determine the integrity of monolayers, TEER values were measured before and after the experiment. In addition, at the end of the experiment cells were collected and lysed to evaluate the compound intake. Briefly, cells were washed twice with cold PBS and 200 µL of cold MeOH was added to detach and lysate the cells; subsequently, cells were collected into lo‐bind Eppendorf and sonicated in ice for 10 min, then centrifuged for 15 min at 4°C at 14,000 rpm (Eppendorf Centrifuge 5430 R). The supernatant was collected and used for further analysis.
(§3) The apparent permeability P app (cm/s) of compounds was calculated from the following equation (Equation 1), while P app (cm/s) of the metabolites was calculated from the equation (Equation 2): (1) Papp=dQ/dt×1/C×1/A.
(§4) Equation (1) for calculating P app (cm/s) of tested reference compounds. (2) Papp=Metabolic cleareance/A.
(§5) Equation (2) for calculating P app (cm/s) of compound metabolites.
(§6) with Metabolic cleareance=Rate of metabolism/C and where dQ/dt is the rate of transport, C is the initial concentration in the donor compartment, and A is the surface area of the filter. To quantify the rate of transport, cumulative amounts of test compounds were plotted against time (min).
(§7) Efflux ratio was calculated using the following equation (Equation 3)^[ [48] ^]: (3) Efflux ratio=Papp(B−A)/Papp(A−B).

[2] = as above; type: in vitro ADME, canine; details: dog, Wt‐MDCK model, N = 4; for Papp A→B at 120 min: absorptive direction, read-out: P app A–B (mean ± SD); for Papp A→B at 120 min / Papp B→A at 120 min: VL 50 μM dosed (VLS formed as metabolite), controls 10 μM; for Papp B→A at 120 min: secretory direction, read-out: P app B–A (mean ± SD); for efflux ratio at 120 min: Papp(B−A)/Papp(A−B), read-out: Efflux ratio (mean ± SD)
Experimental: as §2, §3, §4, §5, §6, §7

[3] = In vitro transport study across 21‐day Caco2 monolayers; type: in vitro ADME, human; details: human, Caco-2, Caco2 model, N = 4; for Papp A→B at 120 min: absorptive direction, read-out: P app A–B (mean ± SD); for Papp A→B at 120 min / Papp B→A at 120 min: VL 50 μM dosed (VLS formed as metabolite), controls 10 μM; for Papp B→A at 120 min: secretory direction, read-out: P app B–A (mean ± SD); for efflux ratio at 120 min: Papp(B−A)/Papp(A−B), read-out: Efflux ratio (mean ± SD)
Experimental: as §2, §3, §4, §5, §6, §7

Caco2 monolayers = assay: as above; type: in vitro ADME, human; details: Caco2 model, VL 50 μM dosed (VLS formed as metabolite), controls 10 μM, N = 4; for P app A–B (mean ± SD): absorptive direction; for P app B–A (mean ± SD): secretory direction
Experimental: as §2, §3, §4, §5, §6, §7

SMILES: COc1cccc2c1C(=O)c1c(O)c3c(c(O)c1C2=O)C[C@@](O)(C(=O)CO)C[C@@H]3O[C@H]1C[C@H](N)[C@H](O)[C@H](C)O1 [doxorubicin]
effect on cell viability (Wt‐MDCK cells): dramatically reduced the viability
effect on cell viability (LS174T cells): dramatically reduced the viability
effect on cell viability (Caco2 cells): dramatically reduced the viability
effect on cell viability (HepG2 cells): dramatically reduced the viability

SMILES: O=C1CC[C@H](Cc2ccc(O)c(OC3OC(C(=O)O)C(O)C(O)C3O)c2)O1 (stereo partly shown) [4ʹ‐OH‐PVL‐3ʹ‐glucuronide]
Cmax [1]: 229 ± 345 nM
average urinary excretion (% of ingested dose) [1]: 3.1% ± 3.3%

SMILES: CO[C@H]1/C=C/O[C@@]2(C)Oc3c(C)c(O)c4c(O)c(c(/C=N/N5CCN(C)CC5)c(O)c4c3C2=O)NC(=O)/C(C)=C\C=C\[C@H](C)[C@H](O)[C@@H](C)[C@@H](O)[C@@H](C)[C@H](OC(C)=O)[C@@H]1C [RIF, rifampicin, reference compound]
PXR activation (PXR): 3.4 folds
intracellular accumulation of Rh‐123 (P‐gp): 75%

P app A–B (mean ± SD) (Wt‐MDCK monolayers): 10.05 ×10⁻⁶ cm/s
P app B–A (mean ± SD) (Wt‐MDCK monolayers): 5.364 ×10⁻⁶ cm/s
Papp A→B at 120 min [2]: 10.1 ×10⁻⁶ cm/s
Papp B→A at 120 min [2]: 5.36 ×10⁻⁶ cm/s
efflux ratio at 120 min [2]: 0.535 ± 0.058
Papp A→B at 120 min [3]: 15.4 ×10⁻⁶ cm/s
Papp B→A at 120 min [3]: 13 ×10⁻⁶ cm/s
efflux ratio at 120 min [3]: 0.859 ± 0.085
P app A–B (mean ± SD) (Caco2 monolayers): 15.39 ×10⁻⁶ cm/s
P app B–A (mean ± SD) (Caco2 monolayers): 12.96 ×10⁻⁶ cm/s
SMILES: CC(C)NCC(O)COc1cccc2ccccc12 (stereo not shown) [Propranolol]

SMILES: O=C1CC[C@H](Cc2ccc(OS(=O)(=O)O)c(O)c2)O1 [3ʹ‐OH‐PVL‐4ʹ‐sulfate]
Cmax [1]: 368 ± 156 nM
average urinary excretion (% of ingested dose) [1]: 11.3% ± 14.8%

SMILES: CC[C@@]1(O)C(=O)OCc2c1cc1n(c2=O)Cc2cc3ccccc3nc2-1 [camptothecin]
effect on cell viability (Wt‐MDCK cells): dramatically reduced the viability
effect on cell viability (LS174T cells): dramatically reduced the viability
effect on cell viability (Caco2 cells): dramatically reduced the viability
effect on cell viability (HepG2 cells): dramatically reduced the viability

P app A–B (mean ± SD) (Wt‐MDCK monolayers): 5.183 ×10⁻⁶ cm/s
P app B–A (mean ± SD) (Wt‐MDCK monolayers): 2.952 ×10⁻⁶ cm/s
Papp A→B at 120 min [2]: 5.18 ×10⁻⁶ cm/s
Papp B→A at 120 min [2]: 2.95 ×10⁻⁶ cm/s
efflux ratio at 120 min [2]: 0.55 ± 0.089
Papp A→B at 120 min [3]: 1.2 ×10⁻⁶ cm/s
Papp B→A at 120 min [3]: 3.42 ×10⁻⁶ cm/s
efflux ratio at 120 min [3]: 2.54 ± 2.06
P app A–B (mean ± SD) (Caco2 monolayers): 1.202 ×10⁻⁶ cm/s
P app B–A (mean ± SD) (Caco2 monolayers): 3.421 ×10⁻⁶ cm/s
SMILES: CC(=O)O[C@H]1C(=O)[C@@]2(C)[C@H]([C@H](OC(=O)c3ccccc3)[C@]3(O)C[C@H](OC(=O)[C@H](O)[C@@H](NC(=O)c4ccccc4)c4ccccc4)C(C)=C1C3(C)C)[C@]1(OC(C)=O)CO[C@@H]1C[C@@H]2O [Paclitaxel]
